Patent publication US20170266222A1, “MODULATION OF CHRFAM7A FOR ANTI-INFLAMMATORY THERAPIES” (THE REGENTS OF THE UNIVERSITY OF CALIFORNIA, priority 2016, published 2017)
Entries after “also recorded” stand apart in the source; their conditions may differ.

How the values were obtained:
CHRFAM7A gene expression = test: qPCR of CHRFAM7A gene expression in gut epithelial cells treated with LPS; assay type: cell-based, human
Description: (§1) All epithelial cancer cell lines were originally purchased from American Type Culture Collection and propagated as instructed. Normal human small intestine epithelial cells (FHs-Int-74) were also obtained from the ATCC (CCL-241). Cells were seeded at 2×10^6 in 6-well tissue culture plates the day before the experiment. As indicated, cells were either harvested directly for total RNA preparation, processed for transient transfection, or treated with LPS (CAT# L4391, Sigma) at 100 ng/ml for 3 hours. At the end of the incubation with LPS, cells were harvested and used for analyses of gene expression.
(§2) Total RNA was prepared using RNeasy kit (Qiagen) and was quantitated using Nanodrop Spectrophotometer. One μg total RNA was reverse transcribed using iScript cDNA synthesis kit (BioRad) in a 20 μl reaction. Of the 20 μl cDNA, one μl was used for RT-PCR or real-time qPCR.
(§3) RT-PCR was performed in a 50 μl reaction containing 45 μl PCR blue mix (Invitrogen), 1 μl of each primer (10 μM), 1 μl cDNA, and 2 μl water. The cycling conditions were: 94° C. for 4 minutes followed by 35 cycles of 94° C. for 30 seconds, 60° C. for 30 seconds, and 72° C. for 60 seconds and a final extension at 72° C. for 5 minutes. Ten μl of each PCR products were resolved on a 2% agarose gel and images were acquired using Alpha Innotech imaging system. Real-time qPCR was performed in a 25 μl reaction containing 12.5 μl 2×CYBR Green PCR Master Mix (BioRad), 0.5 μl of each primer (10 μM), 1 μl cDNA, and 10.5 μl water. PCR cycling conditions were: 95° C. for 10 minutes followed by 45 cycles of 94° C. for 25 seconds, 60° C. for 25 seconds, and 72° C. for 40 seconds. Primer efficiency for CHRFAM7A and CHRNA7 were 100% and 94% respectively. Expression of CHRNA7 and CHRFAM7A was normalized to that of GAPDH using ΔΔCt method.
Primers for CHRFAM7A were designed to hybridize with the variant 1 transcript by selecting sequences that bridge CHRFAM7A and CHRNA7 and therefore unique to CHRFAM7A and not available in FAM7A or CHRNA7A alone: Sense: 5′-ATAGCTGCAAACTGCGATA-3′ (SEQ ID NO:11), Anti-sense: 5′-[…]-3′(SEQ ID NO:12).

CHRFAM7A promoter [1] = test: CHRFAM7A promoter luciferase reporter in FHs cells; assay type: cell-based, human; details: LPS 100 ng/ml
Text: (§4) The putative CHRFAM7A promoter region spanning from −2363 to +22 relative to the open reading frame ATG start codon was amplified by PCR of genomic DNA isolated from HEK293 cells. The longest fragment was cloned into pGL4 promoter-less luciferase reporter plasmid (Promega) according to the manufacturers specifications and the resulting plasmid, pGL4-CHRFAM7A (2400) was confirmed by DNA sequencing and thereafter referred to F2400 to reflect the size of the fragment. […]
(§5) The fragments generated were cloned into the pGL4 vector to create plasmids f1800, f1000, and f500, which were each sequenced to confirm their identity. These plasmids were then transiently transfected into FHs cells as described below, and luciferase activity was analyzed 30 hours after transfection following the manufacturer's instructions (Promega). […]
Transfections of FHs cells for luciferase activity: The normal human small intestine FHs cells were cultured in 10% DMEM/F12 supplemented with 1× Glutamax, 1× Penicillin/Streptomyxin, and 30 ng/ml EGF and seeded at 1×10^5 per well in a 12-well plate the day before transfection. […] The lysate was spun down and 10 μl of the supernatant was used for luciferase assay on POLARstar Omega plate reader (BMG LABTECH).

CHRFAM7A promoter [2] = test: CHRFAM7A promoter luciferase reporter in THP1 cells; assay type: cell-based, human; details: THP1 cells pre-treated with 100 ng/ml LPS
Text: as §4, with “Analyses of the CHRFAM7A promoter: The putative” for “The putative”, “plasmid, pGL4-CHRFAM7A (˜2400) was confirmed” for “plasmid, pGL4-CHRFAM7A (2400) was confirmed”, “referred to f2400 to reflect” for “referred to F2400 to reflect”
as §5, with “THP1” for “FHs”
THP1 cells, cultured in RPMI1640 supplemented with 1× Glutamax and 1× Penicillin/Streptomycin, were seeded at 5×10^5 per well in a 24-well plate two hours before transfection. […] The lysate was spun down and 10 μl of the supernatant was used for luciferase assay on POLARstar Omega plate reader (BMG LABTECH). Luciferase activity normalized to protein concentration was expressed as fold changes over that of pGL4 transfected cells.

CHRNA7 and CHRFAM7A = details: undifferentiated human THP1 cells and human macrophages; cited from earlier work
CHRNA7 gene expression = test: qPCR of CHRNA7 gene expression in gut epithelial cells treated with LPS; assay type: cell-based, human; details: 3 hours
Description: as §1, §2, §3
Primers for CHRNA7 were designed to hybridize with both variant 1 and 2 transcripts of CHRNA7 by selecting sequences present in CHRNA7 but absent from CHRFAM7A for amplification: Sense, 5′-acATGcgctgctcgccggga-3′ (SEQ ID NO:13), Anti-sense, 5′-[…]-3′ (SEQ ID NO:14).

[3] = tested on: CHRFAM7A/CHRNA7 gene expression; test: qRT-PCR ratio of CHRFAM7A to CHRNA7 in leukocyte cell lines treated with LPS; assay type: cell-based, human; details: 100 ng/ml LPS, 3 hours
Text: All cell lines were originally purchased from ATCC and/or acquired through the UCSD Department of Surgery, Division of Trauma, Burns and Acute Care Surgery Cell Repository. Thawed cells were washed in RPMI culture media containing 10% FCS, the pellet reconstituted in culture media and cells plated into six-well tissue culture plates. All cells were washed 48 hrs later and allowed to grow to 90% confluence and propagated with trypsin digestion as needed. For transduction studies, cells were seeded at 2×10^6 in 6-well tissue culture plates the day before the experiment. As indicated in each experiment, cells were harvested directly from the culture dishes for total RNA preparation, processed for stable or transient transfection, or treated with 100 ng/ml LPS (CAT# L4391, Sigma) for 3 hours. At the end of incubations, cells were harvested, total RNA isolated and the cDNA generated (see below) used for analyses of gene expression.
Total RNA was prepared from cell lysates using the RNeasy kit (Qiagen, San Diego Calif.) and was quantified using a Nanodrop Spectrophotometer. […]
RT-PCR and Quantitative RT-PCR for CHRFAM7A and CHRNA7: RT-PCR was performed in a 50 μl reaction containing 45 μl PCR blue mix (Invitrogen), 1 μl of each primer (10 μM), 1 μl cDNA, and 2 μl water. […]

lipopolysaccharide [LPS]
CHRFAM7A gene expression by q-PCR (CHRFAM7A gene expression; FHs cells, 100 ng/ml LPS, 3 hr): increases
relative expression of CHRFAM7A over CHRNA7 (CHRFAM7A gene expression; HCT116T, KM20L and T84 cells, LPS): unchanged
change of CHRFAM7A gene expression (CHRFAM7A gene expression; KM12 and T84 cells, 100 ng/ml LPS): decreased
increase of CHRFAM7A gene expression (CHRFAM7A gene expression; epithelial cells, 100 ng/ml LPS, 3 hour treatment): ~1000 fold
increase of relative expression of CHRFAM7A over CHRNA7 (CHRFAM7A gene expression; gut epithelial cells, depending on the cell line, LPS): 2-200 fold
luciferase activity profile of CHRFAM7A UTR fragments (CHRFAM7A promoter [1]): very similar profile
luciferase signal of CHRFAM7A 5'UTR fragments (CHRFAM7A promoter [2]): decreased; also recorded: inhibited
effect on CHRNA7 and CHRFAM7A (CHRNA7 and CHRFAM7A): inhibits
increase in CHRNA7 gene expression (CHRNA7 gene expression; CaCo2, KM12, KM20, SW, Colo205 cells, 100 ng LPS): less than two-fold
decrease in CHRNA7 gene expression (CHRNA7 gene expression; FHs and T84 cells, 100 ng LPS): 30%
effect on CHRNA7 gene expression (CHRNA7 gene expression; epithelial cells, 100 ng/ml LPS): little to no effect; also recorded: little effect
ratio of CHRFAM7A to CHRNA7 gene expression [3]: unaffected; also recorded: both genes respond equally
